Laboratory results published in US20230136702A1, “Inhibitors of Human Herpesviruses” (The Governors of the University of Alberta, priority 2020, published 2023).
Like-named read-outs stand apart in the source and are kept apart here.

Key:
[1] = target: T1, HCMV DNA polymerase (UL54) (Human cytomegalovirus, UniProt P08546); assay: HCMV DNA polymerase enzyme inhibition assay (ProFoldin, fluorescence); type: biochemical; settings: 37° C., duplicate, max 40 μM
T1 construct: 6His (C); made in house; host or cells: Sf9 insect cells (baculovirus, pFastBac)
Description: The HCMV DNA polymerase assay was developed by ProFoldin. The assay detects the formation of DNA from the DNA polymerase reaction in the presence of a DNA template, dATP and dGTP. The formation of the DNA is detected by using a fluorescence method. The fluorescence intensity increases when DNA is generated by the enzyme reaction.
A time-course experiment was performed aside the enzyme inhibition assay to ensure the assay was sensitive to the enzyme inhibition. The wells for the time-course experiment contained 1 μL of DMSO and the same reaction mixture as that in the enzyme inhibition assay. The time-course data varied between plates. The reactions were stopped when the fluorescence reached a value of about 3700 for each plate.
Exemplary solid compounds (e.g., as described herein) were dissolved in DMSO to make […] stock solutions. PFA (phosphonoformic acid or phosphonomethanoic acid) was used as a positive control. The compound mother plates were prepared at 50× concentrated compound concentrations with a 2-fold serial dilution. All the exemplary compounds except PFA were diluted in DMSO. PFA was diluted in water. The maximum compound concentration was 2 mM that gave the final concentration of 40 μM in the assay. One microliter of the 50× stock solutions was transferred into the assay plates. Three copies of assay plates were prepared, two for HCMV DNA polymerase assay and one for compound background control.
The following is the protocol for enzyme inhibition performed at 37° C.:
1. Prepared a premix composed of 35347 μL of H2O, 5220 μL of 10× assay buffer and 149 μL of 350×HCMV DNA polymerase.
2. Added 39 μL of the premix into the wells with 1 μL of the compound. Incubated the mixture for at least 5 min.
3. Added 10 μL of 5×dNTP (0.1 mM), 5×DNA template solutions into each well and incubated the solution until the fluorescence value reached a value about 3700 for the DMSO-only control wells.
4. Added 50 μL of the 1× dye into the wells.
5. Read the fluorescence at emission wavelength of 535 nm and excitation wavelength of 485 nm.
For the compound background reading, added 99 μL of water in the wells with 1 μL of compounds and read the fluorescence. […] The 0% inhibition value F0 was from the wells with DMSO (no inhibitor).
The background values were subtracted from the fluorescence reading to get the net fluorescence values. The net fluorescence values were used for calculation of the percentage inhibition.
The assay was performed in duplicate for the test article at […], 1.25, 0.625, 0.313, 0.156 and 0.078 μM. The IC50 curves were obtained by fitting the percentage inhibition values with the compound concentrations using Prism GraphPad software.

[2] = system: HCMV US3-6-EGFP-HCMV-AD169 strain; assay: In vitro inhibitory (antiviral) activity against HCMV, GFP reporter in MRC5 cells; type: cell-based, Human cytomegalovirus (HCMV); settings: Human betaherpesvirus 5, AD169, MRC5, 96 h, read-out: HCMV Antiviral EC50 range
Description: (§1) Exemplary compounds (e.g., as described herein) were prepared as 20 mM stock solutions with DMSO. Reference compound was ganciclovir (Sigma). Compounds were tested at 8 concentrations, 3-fold serial dilutions, in duplicate for EC50 and CC50 determinations. The highest testing concentrations of the exemplary compounds and reference compound were 40 μM and 100 μM, respectively. The final concentration of DMSO in the cell culture was 0.5%.
HCMV US3-6-EGFP-HCMV-AD169 strain was obtained from Institute Pasteur of Shanghai, CAS. The virus contains GFP as a reporter of the viral replication.
(§2) MRC5 cells (ATCC CCL-171) was obtained from the ATCC and maintained in the EMEM (Sigma) supplemented with 10% FBS (HyClone), 1% L-glutamine (Gibco), 1% NEAA (Gibco), and 1% PS (Hyclone). Reagent:
In 96-well plates, MRC5 cells were seeded at 20,000 cells per well and cultured at 37° C. and 5% C02 overnight. Next day, compounds (8 concentrations, 3-fold dilutions, in duplicate) and US3-6-EGFP-HCMV-AD169 (MOI=0.1) were added to the cells. The resulting cultures were incubated at 37° C. and 5% C02 for 4 days. Fluorescence intensity was determined by Acumen Cellista (TTP LabTech). The antiviral activity of each compound was calculated based on the inhibition of expression of GFP at each concentration normalized by the cell control (cells without virus infection or compound treatment).
(§3) Antiviral activity and cytotoxicity of the compounds were expressed as % Inhibition and % Viability, respectively, and calculated with the formulas below:
Inhibition (%)=100−(Raw dataCPD−AverageCC)/(AverageVC−AverageCC)*100
(§4) Raw dataCPD indicates the values of the compound-treated wells; AverageVC, AverageCC and AverageMC indicate the average values of the virus control (cells infected with virus, without compound treatment), cell control and medium control wells, respectively.
(§5) EC50 and CC50 values were calculated using the GraphPad Prism software.

[3] = Cytotoxicity in MRC5 cells without virus infection (CCK8); type: cell-based; settings: human
Description: as §1, §2
Cytotoxicity of the compounds was assessed under the same conditions, but without virus infection, in parallel. Cell viability was measured with CCK8 following the manufacturer's manual. CC50 values were then calculated based on cytotoxicity at the test concentrations normalized by the medium control (medium only).
as §3
Viability (%)=(Raw dataCPD−AverageMC)/(AverageCC−AverageMC)*100
as §4, §5

hERG potassium channel = target: T2, hERG potassium channel (Homo sapiens, UniProt Q12809); assay: Inhibition of hERG potassium channel, automated patch clamp (SyncroPatch 384PE) in CHO cells; type: cell-based
T2 construct: host or cells: CHO cells stably expressing hERG
Description: This automated patch clamp method (SyncroPatch 384PE) CHO cells stably expressing hERG potassium channels from Sophion Biosciences were used for this test.
The cells were cultured in a humidified and air-controlled (5% C02) incubator at 37° C.
The CHO cells which were at least two days after plating and more than 75% confluent would be used for experiments. Before testing, cells were harvested using TrypLE and resuspended in the physiological solution at the room temperature.
For the electrophysiological recordings the following solutions were used (Table 5). The physiological solution and external solution were prepared at least one month. The intracellular solution was prepared in batches aliquoted, and stored at 4° C. until used.
Exemplary compounds (e.g., as described herein) were dissolved in 100% DMSO to obtain stock solutions for different test concentrations. Then the stock solutions were further diluted into external solution to achieve final concentrations for testing. Visual check for precipitation was conducted before testing. Final DMSO concentration in external solution was not more than 0.30% for the compounds.
From this holding potential of −80 mV, the voltage was first stepped to −50 mV for 80 ms for leak subtraction, and then stepped to +20 mV for 4800 ms to open hERG channels. After that, the voltage was stepped back down to −50 mV for 5000 ms, causing a “rebound” or tail current, which was measured and collected for data analysis. Finally, the voltage was stepped back to the holding potential (−80 mV, 1000 ms). This voltage command protocol was repeated every 20000 msec. This command protocol was performed continuously during the test (vehicle control and test compound).
hERG SyncroPatch assay was conducted at room temperature. The Setup, Prime Chip, Catch and Seal Cells, Amplifier Settings, Voltage and Application Protocols were established with Biomek Software (Nanion).
One addition of 40 μL of the vehicle was applied, followed by 300s for a baseline period. Then the doses of exemplary test compounds were added with 40 μL. The exposure of test compound at each concentration was no less than 300s. […] Five concentrations (0.494 μM, 1.48 μM, 4.44 μM, 13.33 μM and 40.00 μM) were tested for each compound. Minimum 2 replicates per concentration were obtained.
Within each well recording, percent of control values were calculated for each test compound concentration current response based on peak current in presence of reference control (current response/peak current)×100%. The Dose-Response curves were fit to the standard Hill equation as shown below:
Ipost cpd/Ipre cpd=Bottom+(Top−Bottom)/(1+10^((Log IC50−X)*HillSlope))
Where X is the logarithm of concentration, Ipost cpd/Ipre cpd is the normalized peak current amplitude, Top is 1 and Bottom is equal to 0.
Curve-fitting and IC50 calculations were performed by GraphPad Prism 5.0. If the inhibition obtained at the lowest concentration tested was over 50%, or at the highest concentration tested was less than 50%, we reported the IC50 as less than lowest concentration, or higher than highest concentration, respectively.

[4] = CHO cells stably expressing hERG, room temperature, 0.494-40.00 μM, read-out: CHO-hERG Activity Range

T1 sequence (P08546 whole entry): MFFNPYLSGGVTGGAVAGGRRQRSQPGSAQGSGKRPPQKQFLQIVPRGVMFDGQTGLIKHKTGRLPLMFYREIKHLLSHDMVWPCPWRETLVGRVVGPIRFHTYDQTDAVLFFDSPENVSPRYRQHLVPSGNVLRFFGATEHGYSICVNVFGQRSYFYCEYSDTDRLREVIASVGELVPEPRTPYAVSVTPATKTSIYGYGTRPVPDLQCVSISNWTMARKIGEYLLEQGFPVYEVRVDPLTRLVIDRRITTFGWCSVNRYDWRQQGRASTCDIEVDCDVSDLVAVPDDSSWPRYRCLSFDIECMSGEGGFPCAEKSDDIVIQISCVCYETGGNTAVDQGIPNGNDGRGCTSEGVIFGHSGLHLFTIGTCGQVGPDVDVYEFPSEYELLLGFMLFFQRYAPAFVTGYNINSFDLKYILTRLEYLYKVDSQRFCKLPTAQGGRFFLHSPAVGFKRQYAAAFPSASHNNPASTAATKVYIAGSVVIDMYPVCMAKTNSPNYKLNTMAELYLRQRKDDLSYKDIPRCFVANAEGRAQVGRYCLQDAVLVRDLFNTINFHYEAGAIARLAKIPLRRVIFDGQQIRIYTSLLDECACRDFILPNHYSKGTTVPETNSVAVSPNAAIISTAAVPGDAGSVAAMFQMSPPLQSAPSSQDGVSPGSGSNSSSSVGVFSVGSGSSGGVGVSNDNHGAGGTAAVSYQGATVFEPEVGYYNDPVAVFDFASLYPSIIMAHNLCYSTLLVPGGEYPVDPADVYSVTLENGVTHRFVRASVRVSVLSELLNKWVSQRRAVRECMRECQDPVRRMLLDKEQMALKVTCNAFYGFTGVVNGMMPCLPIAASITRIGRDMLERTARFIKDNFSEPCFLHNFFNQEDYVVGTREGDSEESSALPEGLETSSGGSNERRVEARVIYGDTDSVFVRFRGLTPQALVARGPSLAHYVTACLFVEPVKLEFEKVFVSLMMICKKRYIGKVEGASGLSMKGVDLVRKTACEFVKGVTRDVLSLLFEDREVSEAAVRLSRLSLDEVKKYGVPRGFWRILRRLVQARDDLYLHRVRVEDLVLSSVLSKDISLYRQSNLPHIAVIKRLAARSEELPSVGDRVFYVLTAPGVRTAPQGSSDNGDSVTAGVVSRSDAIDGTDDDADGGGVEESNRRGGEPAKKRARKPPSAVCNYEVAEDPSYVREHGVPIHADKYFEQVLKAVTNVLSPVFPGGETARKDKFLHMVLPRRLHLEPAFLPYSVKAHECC
T2 sequence (Q12809 whole entry): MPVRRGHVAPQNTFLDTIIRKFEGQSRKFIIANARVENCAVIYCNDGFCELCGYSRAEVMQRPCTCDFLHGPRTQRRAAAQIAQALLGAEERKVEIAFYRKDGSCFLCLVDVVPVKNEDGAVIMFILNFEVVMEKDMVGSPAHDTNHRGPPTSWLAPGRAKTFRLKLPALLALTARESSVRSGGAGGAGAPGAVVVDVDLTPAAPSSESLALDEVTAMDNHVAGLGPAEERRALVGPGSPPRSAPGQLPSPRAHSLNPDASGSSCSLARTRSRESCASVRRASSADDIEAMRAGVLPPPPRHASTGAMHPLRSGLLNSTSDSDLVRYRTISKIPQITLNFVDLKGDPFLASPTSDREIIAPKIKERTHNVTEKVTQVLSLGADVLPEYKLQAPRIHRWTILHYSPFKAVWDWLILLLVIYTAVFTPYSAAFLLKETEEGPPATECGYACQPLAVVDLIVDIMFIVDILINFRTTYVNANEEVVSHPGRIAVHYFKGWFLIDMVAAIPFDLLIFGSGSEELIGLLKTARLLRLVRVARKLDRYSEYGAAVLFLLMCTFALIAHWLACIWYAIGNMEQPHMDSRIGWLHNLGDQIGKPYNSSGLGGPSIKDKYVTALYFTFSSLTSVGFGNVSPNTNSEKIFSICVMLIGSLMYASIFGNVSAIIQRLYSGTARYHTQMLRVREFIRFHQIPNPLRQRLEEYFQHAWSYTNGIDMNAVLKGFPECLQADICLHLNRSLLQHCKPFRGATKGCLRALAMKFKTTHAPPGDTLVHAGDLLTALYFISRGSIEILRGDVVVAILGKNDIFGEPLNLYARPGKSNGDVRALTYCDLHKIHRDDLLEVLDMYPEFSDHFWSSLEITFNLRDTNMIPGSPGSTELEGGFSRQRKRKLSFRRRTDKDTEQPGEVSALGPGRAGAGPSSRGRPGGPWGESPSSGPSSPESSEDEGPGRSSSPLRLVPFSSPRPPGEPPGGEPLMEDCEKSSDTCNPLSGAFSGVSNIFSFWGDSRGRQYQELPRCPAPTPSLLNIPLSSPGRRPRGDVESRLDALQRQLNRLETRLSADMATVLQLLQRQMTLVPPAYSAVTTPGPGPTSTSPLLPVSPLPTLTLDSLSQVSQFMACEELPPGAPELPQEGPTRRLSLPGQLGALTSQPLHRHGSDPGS

Structure (SMILES) | IC50 [1] [µM] | EC50 [2] [µM] | CC50 at 4 days [3] [µM] | IC50 (hERG potassium channel; [4]) [µM] | IC50 (hERG potassium channel) [µM]
CC1(F)CN(C(=O)Cn2c(=O)c(C(=O)NCc3ccc(Cl)cc3)cc3nc(N4CCCC4=O)cnc32)C1 [Compound 1, N-[(4-chlorophenyl)methyl]-5-[2-(3-fluoro-3-methylazetidin-1-yl)-2-oxoethyl]-6-oxo-2-(2-oxopyrrolidin-1-yl)-5,6-dihydropyrido[2,3-b]pyrazine-7-carboxamide] | < 1 | < 1 | < 20 | > 10 | –
CC1(F)CN(C(=O)Cn2c(=O)c(C(=O)NCc3ccc(Cl)cc3)cc3nc(N4CCOC4=O)cnc32)C1 [Compound 2, N-[(4-chlorophenyl)methyl]-5-[2-(3-fluoro-3-methylazetidin-1-yl)-2-oxoethyl]-6-oxo-2-(2-oxo-1,3-oxazolidin-3-yl)-5,6-dihydropyrido[2,3-b]pyrazine-7-carboxamide] | < 1 | < 1 | < 40 | < 10 | –
CN1CCN(c2cnc3c(cc(C(=O)NCc4ccc(Cl)cc4)c(=O)n3CC(=O)N3CC(C)(F)C3)n2)C1=O [Compound 3, N-[(4-chlorophenyl)methyl]-5-[2-(3-fluoro-3-methylazetidin-1-yl)-2-oxoethyl]-2-(3-methyl-2-oxoimidazolidin-1-yl)-6-oxo-5,6-dihydropyrido[2,3-b]pyrazine-7-carboxamide] | < 1 | < 1 | > 40 | > 10 | –
CC1CCN(c2cnc3c(cc(C(=O)NCc4ccc(Cl)cc4)c(=O)n3CC(=O)N3CC(C)(F)C3)n2)C1=O (stereo not drawn) [Compound 4, N-[(4-chlorophenyl)methyl]-5-[2-(3-fluoro-3-methylazetidin-1-yl)-2-oxoethyl]-2-(3-methyl-2-oxopyrrolidin-1-yl)-6-oxo-5,6-dihydropyrido[2,3-b]pyrazine-7-carboxamide] | < 1 | < 1 | > 40 | < 10 | –
CC1(F)CN(C(=O)Cn2c(=O)c(C(=O)NCc3ccc(Cl)cc3)cc3nc(N4CCN(CCN)C4=O)cnc32)C1 [Compound 6] | < 1 | < 1 | > 40 | > 10 | –
CC1(F)CN(C(=O)Cn2c(=O)c(C(=O)NCc3ccc(Cl)cc3)cc3nc(N4CCNC4=O)cnc32)C1 [Compound 12, N-[(4-chlorophenyl)methyl]-5-[2-(3-fluoro-3-methylazetidin-1-yl)-2-oxoethyl]-6-oxo-2-(2-oxoimidazolidin-1-yl)-5,6-dihydropyrido[2,3-b]pyrazine-7-carboxamide] | < 1 | < 1 | > 40 | > 10 | –
CC1(F)CN(C(=O)Cn2c(=O)c(C(=O)NCc3ccc(Cl)cc3)cc3nc(N4CCN(CC(=O)O)C4=O)cnc32)C1 [Compound 13, [3-(7-{[(4-chlorophenyl)methyl]carbamoyl}-5-[2-(3-fluoro-3-methylazetidin-1-yl)-2-oxoethyl]-6-oxo-5,6-dihydropyrido[2,3-b]pyrazin-2-yl)-2-oxoimidazolidin-1-yl]acetic acid] | < 1 | > 1 | > 40 | > 10 | –
CN1C(=O)CN(c2cnc3c(cc(C(=O)NCc4ccc(Cl)cc4)c(=O)n3CC(=O)N3CC(C)(F)C3)n2)C1=O [Compound 14, N-[(4-chlorophenyl)methyl]-5-[2-(3-fluoro-3-methylazetidin-1-yl)-2-oxoethyl]-2-(3-methyl-2,4-dioxoimidazolidin-1-yl)-6-oxo-5,6-dihydropyrido[2,3-b]pyrazine-7-carboxamide] | < 1 | > 1 | > 40 | > 10 | –
CN1C(=O)CN(c2cnc3c(cc(C(=O)NCc4ccc(Cl)cc4)c(=O)n3CC(=O)N3CC4(CC4)C3)n2)C1=O [Compound 15, 5-[2-(5-azaspiro[2.3]hexan-5-yl)-2-oxoethyl]-N-[(4-chlorophenyl)methyl]-2-(3-methyl-2,4-dioxoimidazolidin-1-yl)-6-oxo-5,6-dihydropyrido[2,3-b]pyrazine-7-carboxamide] | < 1 | < 1 | > 40 | – | < 10
O=C(O)CN1CCN(c2cnc3c(cc(C(=O)NCc4ccc(Cl)cc4)c(=O)n3CC(=O)N3CC4(CC4)C3)n2)C1=O [Compound 20, [3-(5-[2-(5-azaspiro[2.3]hexan-5-yl)-2-oxoethyl]-7-{[(4-chlorophenyl)methyl]carbamoyl}-6-oxo-5,6-dihydropyrido[2,3-b]pyrazin-2-yl)-2-oxoimidazolidin-1-yl]acetic acid] | – | > 1 | > 40 | > 10 | –
